In patent publication US20240368506A1, “Manufacturing a Non-Alcoholic Distilled Spirit and Functional Ingredient” (priority 2022, published 2024):

Columns and labels:
MAO B = target: T1, MAO B (Homo sapiens, UniProt P27338); test: MAO B inhibitory activity of Don Julio Añejo or 40% ethanol spiked with terpenes; assay type: biochemical; conditions: terpene at 0.5% (v/v) in tequila (40% ABV) and in 40% ethanol
T1 sequence (P27338 1-520): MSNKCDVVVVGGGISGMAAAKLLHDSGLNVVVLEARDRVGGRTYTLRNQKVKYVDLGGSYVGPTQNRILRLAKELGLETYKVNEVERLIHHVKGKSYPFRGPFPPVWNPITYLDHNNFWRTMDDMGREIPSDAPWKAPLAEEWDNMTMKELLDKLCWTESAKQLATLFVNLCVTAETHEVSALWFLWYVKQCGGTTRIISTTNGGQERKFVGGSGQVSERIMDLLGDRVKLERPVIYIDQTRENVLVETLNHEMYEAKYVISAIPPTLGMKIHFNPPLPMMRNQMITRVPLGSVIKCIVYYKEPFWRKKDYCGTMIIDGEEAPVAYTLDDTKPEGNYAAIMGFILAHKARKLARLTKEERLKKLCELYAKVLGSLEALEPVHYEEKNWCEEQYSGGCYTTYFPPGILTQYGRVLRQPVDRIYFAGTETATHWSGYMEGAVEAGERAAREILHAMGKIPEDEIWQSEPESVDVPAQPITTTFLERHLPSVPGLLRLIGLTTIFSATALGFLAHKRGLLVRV
Protocol: (§1) The effect terpenes on MAOI activity in tequila was evaluated in the experiment from Table 3. Terpenes were added to 40% ethanol and tequila (40% ABV) at 0.5%. (v/v) and assayed for MAO inhibitory activity.

MAO A = target: T2, MAO A (Homo sapiens, UniProt P21397); test: MAO A inhibitory activity of Don Julio Añejo or 40% ethanol spiked with terpenes; assay type: biochemical; conditions: terpene at 0.5% (v/v) in tequila (40% ABV) and in 40% ethanol
T2 sequence (P21397 1-527): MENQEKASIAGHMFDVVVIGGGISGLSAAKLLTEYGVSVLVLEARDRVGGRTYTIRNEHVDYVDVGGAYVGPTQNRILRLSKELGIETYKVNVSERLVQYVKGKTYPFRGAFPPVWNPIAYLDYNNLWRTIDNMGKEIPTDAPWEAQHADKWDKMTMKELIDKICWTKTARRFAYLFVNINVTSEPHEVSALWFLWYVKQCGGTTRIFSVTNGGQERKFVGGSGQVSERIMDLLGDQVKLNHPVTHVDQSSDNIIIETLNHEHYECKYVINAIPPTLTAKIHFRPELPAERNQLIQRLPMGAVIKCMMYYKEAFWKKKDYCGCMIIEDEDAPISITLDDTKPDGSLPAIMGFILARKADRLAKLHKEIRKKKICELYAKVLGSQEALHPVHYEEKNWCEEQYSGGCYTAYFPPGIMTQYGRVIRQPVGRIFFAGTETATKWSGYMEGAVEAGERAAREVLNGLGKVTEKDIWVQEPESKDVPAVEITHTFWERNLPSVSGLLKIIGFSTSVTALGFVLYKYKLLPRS
Protocol: as §1

Row | Δ % Inhibition MAO B (DJA + terpene) − (ETOH + terpene) (MAO B) [%] | Δ % Inhibition MAO A (DJA + terpene) − (ETOH + terpene) (MAO A) [%] | Molecule
1 | 20 | 9 | C=C(C)[C@@H]1CCC2=CCC[C@@H](C)[C@]2(C)C1 [valencene]
2 | 9 | 4 | Geramol
